From PubChem BioAssay (NCI)
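In this assay, cells in 96-well plates receive the compound at five concentrations for 48 hours. Endpoints are linearly interpolated between the surrounding concentrations. GI50 marks 50% less growth. TGI: total growth inhibition.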

Legend:
Assay in all cases: DTP human tumour cell line panel, 48 h
786-0 renal = tested on: 786-0 renal
A498 renal = tested on: A498 renal
A549 NSCLC = tested on: A549 NSCLC
ACHN renal = tested on: ACHN renal
BT-549 breast = tested on: BT-549 breast
CAKI-1 renal = tested on: CAKI-1 renal
CCRF-CEM leukemia = tested on: CCRF-CEM leukemia
COLO 205 colon = tested on: COLO 205 colon
DU-145 prostate = tested on: DU-145 prostate
EKVX NSCLC = tested on: EKVX NSCLC
HCC-2998 colon = tested on: HCC-2998 colon
HCT-116 colon = tested on: HCT-116 colon
HCT-15 colon = tested on: HCT-15 colon
HL-60(TB) leukemia = tested on: HL-60(TB) leukemia
HOP-62 NSCLC = tested on: HOP-62 NSCLC
HOP-92 NSCLC = tested on: HOP-92 NSCLC
HS 578T breast = tested on: HS 578T breast
HT29 colon = tested on: HT29 colon
IGROV1 ovarian = tested on: IGROV1 ovarian
K-562 leukemia = tested on: K-562 leukemia
KM12 colon = tested on: KM12 colon
LOX IMVI melanoma = tested on: LOX IMVI melanoma
M14 melanoma = tested on: M14 melanoma
MALME-3M melanoma = tested on: MALME-3M melanoma
MCF7 breast = tested on: MCF7 breast
MDA-MB-231 breast = tested on: MDA-MB-231 breast
MDA-MB-435 = tested on: MDA-MB-435
MOLT-4 leukemia = tested on: MOLT-4 leukemia
NCI-H460 lung = tested on: NCI-H460 lung
NCI-H522 lung = tested on: NCI-H522 lung
NCI/ADR-RES ovarian = tested on: NCI/ADR-RES ovarian
OVCAR-3 ovarian = tested on: OVCAR-3 ovarian
OVCAR-4 ovarian = tested on: OVCAR-4 ovarian
OVCAR-5 ovarian = tested on: OVCAR-5 ovarian
OVCAR-8 ovarian = tested on: OVCAR-8 ovarian
PC-3 prostate = tested on: PC-3 prostate
RPMI-8226 leukemia = tested on: RPMI-8226 leukemia
RXF 393 renal = tested on: RXF 393 renal
SF-268 CNS = tested on: SF-268 CNS
SF-295 CNS = tested on: SF-295 CNS
SF-539 CNS = tested on: SF-539 CNS
SK-MEL-2 melanoma = tested on: SK-MEL-2 melanoma
SK-MEL-28 melanoma = tested on: SK-MEL-28 melanoma
SK-MEL-5 melanoma = tested on: SK-MEL-5 melanoma
SK-OV-3 ovarian = tested on: SK-OV-3 ovarian
SN12C renal = tested on: SN12C renal
SNB-19 CNS = tested on: SNB-19 CNS
SNB-75 CNS = tested on: SNB-75 CNS
SR leukemia = tested on: SR leukemia
SW-620 colon = tested on: SW-620 colon
T-47D breast = tested on: T-47D breast
TK-10 renal = tested on: TK-10 renal
U251 CNS = tested on: U251 CNS
UACC-257 melanoma = tested on: UACC-257 melanoma
UACC-62 melanoma = tested on: UACC-62 melanoma
UO-31 renal = tested on: UO-31 renal
NCI-H226 lung = tested on: NCI-H226 lung
NCI-H23 lung = tested on: NCI-H23 lung

Nc1nc(-c2cccc([N+](=O)[O-])c2)c(N=Nc2ccc(Br)cc2)s1
GI50 (786-0 renal): 13.6 µM
TGI (786-0 renal): 27.5 µM
GI50 (A498 renal): 16.7 µM
TGI (A498 renal): 31.7 µM
GI50 (A549 NSCLC): 17 µM
TGI (A549 NSCLC): 35.1 µM
GI50 (ACHN renal): 14.2 µM
TGI (ACHN renal): 27.3 µM
GI50 (BT-549 breast): 15.7 µM
TGI (BT-549 breast): 40.8 µM
GI50 (CAKI-1 renal): 12 µM
TGI (CAKI-1 renal): 24.3 µM
GI50 (CCRF-CEM leukemia): 13.4 µM
TGI (CCRF-CEM leukemia): > 100 µM
GI50 (COLO 205 colon): 24.6 µM
TGI (COLO 205 colon): 94 µM
GI50 (DU-145 prostate): 8.14 µM
TGI (DU-145 prostate): 25.8 µM
GI50 (EKVX NSCLC): 17.9 µM
TGI (EKVX NSCLC): 64.1 µM
GI50 (HCC-2998 colon): 18.7 µM
TGI (HCC-2998 colon): 38.8 µM
GI50 (HCT-116 colon): 4.63 µM
TGI (HCT-116 colon): 16 µM
GI50 (HCT-15 colon): 5.57 µM
TGI (HCT-15 colon): 33.2 µM
GI50 (HL-60(TB) leukemia): 91.2 µM
TGI (HL-60(TB) leukemia): > 100 µM
GI50 (HOP-62 NSCLC): 15.2 µM
TGI (HOP-62 NSCLC): 29.8 µM
GI50 (HOP-92 NSCLC): 10.1 µM
TGI (HOP-92 NSCLC): 32.1 µM
GI50 (HS 578T breast): 19.3 µM
TGI (HS 578T breast): > 100 µM
GI50 (HT29 colon): 19.4 µM
TGI (HT29 colon): > 100 µM
GI50 (IGROV1 ovarian): 16.2 µM
TGI (IGROV1 ovarian): 47.8 µM
GI50 (K-562 leukemia): 10.3 µM
TGI (K-562 leukemia): > 100 µM
GI50 (KM12 colon): 16.1 µM
TGI (KM12 colon): > 100 µM
GI50 (LOX IMVI melanoma): 4 µM
TGI (LOX IMVI melanoma): 26.6 µM
GI50 (M14 melanoma): 17.3 µM
TGI (M14 melanoma): 38.8 µM
GI50 (MALME-3M melanoma): 16.3 µM
TGI (MALME-3M melanoma): 30.5 µM
GI50 (MCF7 breast): 12.7 µM
TGI (MCF7 breast): > 100 µM
GI50 (MDA-MB-231 breast): 7.74 µM
TGI (MDA-MB-231 breast): 24 µM
GI50 (MDA-MB-435): 20.5 µM
TGI (MDA-MB-435): 57.2 µM
GI50 (MOLT-4 leukemia): 12 µM
TGI (MOLT-4 leukemia): > 100 µM
GI50 (NCI-H460 lung): 12.8 µM
TGI (NCI-H460 lung): 44.6 µM
GI50 (NCI-H522 lung): 10.9 µM
TGI (NCI-H522 lung): 35.8 µM
GI50 (NCI/ADR-RES ovarian): 7.93 µM
TGI (NCI/ADR-RES ovarian): > 100 µM
GI50 (OVCAR-3 ovarian): 18.6 µM
TGI (OVCAR-3 ovarian): 41.3 µM
GI50 (OVCAR-4 ovarian): 11.1 µM
TGI (OVCAR-4 ovarian): 63.3 µM
GI50 (OVCAR-5 ovarian): 20.3 µM
TGI (OVCAR-5 ovarian): 54.4 µM
GI50 (OVCAR-8 ovarian): 10.2 µM
TGI (OVCAR-8 ovarian): 33.6 µM
GI50 (PC-3 prostate): 20.2 µM
TGI (PC-3 prostate): 86 µM
GI50 (RPMI-8226 leukemia): 21 µM
TGI (RPMI-8226 leukemia): > 100 µM
GI50 (RXF 393 renal): 12.6 µM
TGI (RXF 393 renal): 25.4 µM
GI50 (SF-268 CNS): 19.1 µM
TGI (SF-268 CNS): 99.4 µM
GI50 (SF-295 CNS): 23 µM
TGI (SF-295 CNS): 49.8 µM
GI50 (SF-539 CNS): 3 µM
TGI (SF-539 CNS): 10.4 µM
GI50 (SK-MEL-2 melanoma): 18.6 µM
TGI (SK-MEL-2 melanoma): 51.8 µM
GI50 (SK-MEL-28 melanoma): 18.7 µM
TGI (SK-MEL-28 melanoma): 47 µM
GI50 (SK-MEL-5 melanoma): 16.9 µM
TGI (SK-MEL-5 melanoma): 31.5 µM
GI50 (SK-OV-3 ovarian): 16 µM
TGI (SK-OV-3 ovarian): 30.1 µM
GI50 (SN12C renal): 14.1 µM
TGI (SN12C renal): 37.2 µM
GI50 (SNB-19 CNS): 20.3 µM
TGI (SNB-19 CNS): 50.1 µM
GI50 (SNB-75 CNS): 18.4 µM
TGI (SNB-75 CNS): 41.1 µM
GI50 (SR leukemia): 21.6 µM
TGI (SR leukemia): > 100 µM
GI50 (SW-620 colon): 15.4 µM
TGI (SW-620 colon): 78.8 µM
GI50 (T-47D breast): 9.84 µM
TGI (T-47D breast): 46 µM
GI50 (TK-10 renal): 21.6 µM
TGI (TK-10 renal): 36.5 µM
GI50 (U251 CNS): 14.2 µM
TGI (U251 CNS): 33.6 µM
GI50 (UACC-257 melanoma): 22.4 µM
TGI (UACC-257 melanoma): 50.8 µM
GI50 (UACC-62 melanoma): 15.1 µM
TGI (UACC-62 melanoma): 41.4 µM
GI50 (UO-31 renal): 12.7 µM
TGI (UO-31 renal): 25.2 µM

C#C[C@]1(O)CC[C@H]2[C@@H]3CC=C4c5sc(Nc6cc(Cl)ccc6OC)nc5CC[C@]4(C)[C@H]3CC[C@@]21C
GI50 (786-0 renal): 0.381 µM
TGI (786-0 renal): 1.97 µM
GI50 (A498 renal): 0.219 µM
TGI (A498 renal): 1.05 µM
GI50 (A549 NSCLC): 2.86 µM
TGI (A549 NSCLC): > 100 µM
GI50 (BT-549 breast): 0.797 µM
TGI (BT-549 breast): 5.46 µM
GI50 (CAKI-1 renal): 1.52 µM
TGI (CAKI-1 renal): 4.15 µM
GI50 (COLO 205 colon): 2.19 µM
TGI (COLO 205 colon): 4.39 µM
GI50 (EKVX NSCLC): 1.63 µM
TGI (EKVX NSCLC): 6.39 µM
GI50 (HCC-2998 colon): 1.75 µM
TGI (HCC-2998 colon): 3.39 µM
GI50 (HCT-116 colon): 1.13 µM
TGI (HCT-116 colon): 2.56 µM
GI50 (HCT-15 colon): 1.33 µM
TGI (HCT-15 colon): 3.26 µM
GI50 (HL-60(TB) leukemia): 0.84 µM
TGI (HL-60(TB) leukemia): 3.96 µM
GI50 (HOP-62 NSCLC): 2.56 µM
TGI (HOP-62 NSCLC): > 100 µM
GI50 (HOP-92 NSCLC): 2.47 µM
TGI (HOP-92 NSCLC): 6.75 µM
GI50 (HS 578T breast): 0.486 µM
TGI (HS 578T breast): 5.87 µM
GI50 (HT29 colon): 1.79 µM
TGI (HT29 colon): 4.86 µM
GI50 (IGROV1 ovarian): 1.79 µM
TGI (IGROV1 ovarian): 5.64 µM
GI50 (K-562 leukemia): 0.581 µM
TGI (K-562 leukemia): 9.42 µM
GI50 (KM12 colon): 1.97 µM
TGI (KM12 colon): 4.35 µM
GI50 (LOX IMVI melanoma): 1.38 µM
TGI (LOX IMVI melanoma): 2.88 µM
GI50 (M14 melanoma): 1.4 µM
TGI (M14 melanoma): 4.93 µM
GI50 (MALME-3M melanoma): 1.33 µM
TGI (MALME-3M melanoma): 3.7 µM
GI50 (MCF7 breast): 0.808 µM
TGI (MCF7 breast): 2.35 µM
GI50 (MDA-MB-231 breast): 1.96 µM
TGI (MDA-MB-231 breast): 4.88 µM
GI50 (MDA-MB-435): 1.89 µM
TGI (MDA-MB-435): 5.41 µM
GI50 (MOLT-4 leukemia): 0.454 µM
TGI (MOLT-4 leukemia): 4.6 µM
GI50 (NCI-H226 lung): 1.62 µM
TGI (NCI-H226 lung): 3.51 µM
GI50 (NCI-H23 lung): 1.81 µM
TGI (NCI-H23 lung): > 100 µM
GI50 (NCI/ADR-RES ovarian): 2.52 µM
TGI (NCI/ADR-RES ovarian): 48.8 µM
GI50 (OVCAR-3 ovarian): 1.64 µM
TGI (OVCAR-3 ovarian): 3.56 µM
GI50 (OVCAR-4 ovarian): 3.54 µM
TGI (OVCAR-4 ovarian): > 100 µM
GI50 (OVCAR-8 ovarian): 3.55 µM
TGI (OVCAR-8 ovarian): > 100 µM
GI50 (RPMI-8226 leukemia): 0.251 µM
TGI (RPMI-8226 leukemia): 0.684 µM
GI50 (RXF 393 renal): 0.178 µM
TGI (RXF 393 renal): 0.503 µM
GI50 (SF-268 CNS): 2.21 µM
TGI (SF-268 CNS): > 100 µM
GI50 (SF-295 CNS): 0.306 µM
TGI (SF-295 CNS): 1.12 µM
GI50 (SF-539 CNS): 0.359 µM
TGI (SF-539 CNS): 1.46 µM
GI50 (SK-MEL-2 melanoma): 1.3 µM
TGI (SK-MEL-2 melanoma): 4.61 µM
GI50 (SK-MEL-28 melanoma): 0.42 µM
TGI (SK-MEL-28 melanoma): 1.66 µM
GI50 (SK-MEL-5 melanoma): 1.93 µM
TGI (SK-MEL-5 melanoma): 4.05 µM
GI50 (SK-OV-3 ovarian): 4.27 µM
TGI (SK-OV-3 ovarian): > 100 µM
GI50 (SR leukemia): 0.578 µM
TGI (SR leukemia): 4.51 µM
GI50 (SW-620 colon): 1.67 µM
TGI (SW-620 colon): 3.86 µM
GI50 (T-47D breast): 2.41 µM
TGI (T-47D breast): > 100 µM
GI50 (UO-31 renal): 1.45 µM
TGI (UO-31 renal): 3.04 µM
